In the supplement of paper PMC11451515:

Tested on: P12-Ichikawa
Assay: cell viability relative to DMSO control; higher = less cytotoxic
Conditions: 48 h
In short: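 NOMO1 or SEM (500 cells/well) or P12-Ichikawa (1000 cells/well) leukemia cells were adapted for at least four passages in each medium. They were seeded in 1536-well plates (5 μl) and pin-dosed with library compounds in DMSO over an 11-point threefold series, 47 μM to 0.79 nM. CellTiter-Glo One luminescence was read after 48 h at 37°C. Viability is the per-plate percentage relative to DMSO wells, with cell-free wells as background.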

[1] = HPLM + 10% dialyzed FBS, 0.000781 µM
[2] = HPLM + 10% dialyzed FBS, 0.00234 µM
[3] = HPLM + 10% dialyzed FBS, 0.00702 µM
[4] = HPLM + 10% dialyzed FBS, 0.0211 µM
[5] = HPLM + 10% dialyzed FBS, 0.0632 µM
[6] = HPLM + 10% dialyzed FBS, 0.19 µM
[7] = HPLM + 10% dialyzed FBS, 0.569 µM
[8] = HPLM + 10% dialyzed FBS, 1.71 µM
[9] = HPLM + 10% dialyzed FBS, 5.12 µM
[10] = HPLM + 10% dialyzed FBS, 15.4 µM
[11] = HPLM + 10% dialyzed FBS, 46.1 µM
[12] = RPMI 5 mM glucose + 10% FBS, 0.000781 µM
[13] = RPMI 5 mM glucose + 10% FBS, 0.00234 µM
[14] = RPMI 5 mM glucose + 10% FBS, 0.00702 µM
[15] = RPMI 5 mM glucose + 10% FBS, 0.0211 µM
[16] = RPMI 5 mM glucose + 10% FBS, 0.0632 µM
[17] = RPMI 5 mM glucose + 10% FBS, 0.19 µM
[18] = RPMI 5 mM glucose + 10% FBS, 0.569 µM
[19] = RPMI 5 mM glucose + 10% FBS, 1.71 µM
[20] = RPMI 5 mM glucose + 10% FBS, 5.12 µM
[21] = RPMI 5 mM glucose + 10% FBS, 15.4 µM
[22] = RPMI 5 mM glucose + 10% FBS, 46.1 µM
[23] = RPMI 5 mM glucose + 10% dialyzed FBS, 0.000781 µM
[24] = RPMI 5 mM glucose + 10% dialyzed FBS, 0.00234 µM
[25] = RPMI 5 mM glucose + 10% dialyzed FBS, 0.00702 µM
[26] = RPMI 5 mM glucose + 10% dialyzed FBS, 0.0211 µM
[27] = RPMI 5 mM glucose + 10% dialyzed FBS, 0.0632 µM
[28] = RPMI 5 mM glucose + 10% dialyzed FBS, 0.19 µM
[29] = RPMI 5 mM glucose + 10% dialyzed FBS, 0.569 µM
[30] = RPMI 5 mM glucose + 10% dialyzed FBS, 1.71 µM
[31] = RPMI 5 mM glucose + 10% dialyzed FBS, 5.12 µM
[32] = RPMI 5 mM glucose + 10% dialyzed FBS, 15.4 µM
[33] = RPMI 5 mM glucose + 10% dialyzed FBS, 46.1 µM

| Compound | cell viability [1] [%] | cell viability [2] [%] | cell viability [3] [%] | cell viability [4] [%] | cell viability [5] [%] | cell viability [6] [%] | cell viability [7] [%] | cell viability [8] [%] | cell viability [9] [%] | cell viability [10] [%] | cell viability [11] [%] | cell viability [12] [%] | cell viability [13] [%] | cell viability [14] [%] | cell viability [15] [%] | cell viability [16] [%] | cell viability [17] [%] | cell viability [18] [%] | cell viability [19] [%] | cell viability [20] [%] | cell viability [21] [%] | cell viability [22] [%] | cell viability [23] [%] | cell viability [24] [%] | cell viability [25] [%] | cell viability [26] [%] | cell viability [27] [%] | cell viability [28] [%] | cell viability [29] [%] | cell viability [30] [%] | cell viability [31] [%] | cell viability [32] [%] | cell viability [33] [%] |
| --- | --- | --- | --- | --- | --- | --- | --- | --- | --- | --- | --- | --- | --- | --- | --- | --- | --- | --- | --- | --- | --- | --- | --- | --- | --- | --- | --- | --- | --- | --- | --- | --- | --- |
| CCN(CC)CCNC(=O)c1c(C)[nH]c(/C=C2\C(=O)Nc3ccc(F)cc32)c1C | 106 | 102 | 106 | 103 | 104 | 36.8 | 21.5 | 6.34 | 9.77 | 3.45 | 2.39 | 106 | 105 | 114 | 103 | 118 | 58.8 | 34.1 | 12.6 | 14.6 | 4.54 | 2.44 | 114 | 113 | 109 | 112 | 113 | 51.3 | 31 | 12.2 | 14.3 | 4.09 | 2.75 |
| CC/C=C\C[C@H]1C(=O)CC[C@@H]1CC(=O)OC | 121 | 119 | 126 | 125 | 126 | 126 | 117 | 115 | 115 | 114 | 108 |  |  |  |  |  |  |  |  |  |  |  | 122 | 129 | 124 | 121 | 131 | 125 | 125 | 126 | 125 | 116 | 109 |
| Oc1cc(-c2nc(-c3ccccc3)[nH]c2-c2ccncc2)ccc1Cl | 109 | 110 | 110 | 115 | 118 | 117 | 106 | 101 | 92.7 | 82.9 | 65.7 | 122 | 111 | 117 | 122 | 119 | 118 | 111 | 113 | 84.7 | 74.5 | 45.2 |  |  |  |  |  |  |  |  |  |  |  |
| O=C(c1cncc(Br)c1)N1CCC(N2CCCC2)CC1 | 107 | 97.4 | 106 | 103 | 105 | 99.9 | 100 | 101 | 100 | 95.1 | 89.9 | 93.6 | 99.7 | 100 | 95.9 | 98.2 | 96.7 | 100 | 94 | 103 | 92.5 | 90.3 | 95.9 | 102 | 99.6 | 99.6 | 95.2 | 95.1 | 96.7 | 100 | 92 | 87.1 | 92 |
| CNc1nc(-c2ccc3c(N)n[nH]c3c2)cc(N2C[C@@H](C(=O)NC3CCCCC3)CC[C@H]2C)n1 | 97.8 | 85.9 | 90.8 | 95.6 | 98.6 | 90.8 | 83.5 | 76.9 | 75.3 | 72.3 | 13.4 | 76.7 | 91.4 | 82.5 | 86.5 | 78.6 | 65.6 | 64 | 57.7 | 54.9 | 51 | 12.8 | 83.5 | 86.6 | 79.9 | 86.5 | 88.4 | 69.9 | 65.5 | 63.5 | 59.8 | 52.1 | 27.8 |
| CCCOc1ccc(C(=O)OCCN(CC)CC)cc1N | 106 | 116 | 79.2 | 113 | 122 | 119 | 122 | 123 | 125 | 119 | 118 | 104 | 130 | 69.2 | 112 | 129 | 128 | 130 | 126 | 133 | 115 | 120 | 100 | 115 | 72.8 | 111 | 125 | 123 | 123 | 122 | 130 | 127 | 110 |
| CN(C)CCCC1(c2ccc(F)cc2)OCc2cc(C#N)ccc21 (centres undefined) | 98.8 | 96.8 | 95.5 | 90.1 | 95.1 | 94.8 | 91.8 | 99.9 | 69.7 | 87.7 | 74.7 | 91 | 83.8 | 88.2 | 91.1 | 96.4 | 89.7 | 87.1 | 85.8 | 83.2 | 82.5 | 74.3 | 90.6 | 97.3 | 91.1 | 92.7 | 94.4 | 92.3 | 89.3 | 91.9 | 78.5 | 80.2 | 78.4 |
| CC1(C)CC\C2=C(/O1)C3=C(C=CC=C3)C(=O)C2=O | 112 | 118 | 114 | 116 | 106 | 111 | 110 | 102 | 104 | 99.4 | 2.4 | 113 | 106 | 94.9 | 102 | 112 | 109 | 105 | 98.3 | 105 | 90.5 | 0.954 | 107 | 119 | 100 | 101 | 108 | 96.6 | 109 | 89.2 | 102 | 94.9 | 1.41 |
| CNC(=O)c1ccc2c(c1)NC(=O)/C2=C(\Nc1cccc(CN(C)C)c1)c1ccccc1 | 92.9 | 97.2 | 98.5 | 99.8 | 100 | 101 | 98.9 | 89.1 | 35.8 | 87.6 | 0.763 | 87.3 | 98.2 | 97.3 | 105 | 102 | 101 | 103 | 92.5 | 36.5 | 83.5 | 1.21 | 86.4 | 95.6 | 108 | 101 | 102 | 101 | 103 | 97.5 | 35.6 | 81.8 | 1.03 |
| NC1=NC(=O)N2CC12 (centres undefined) | 91 | 103 | 101 | 107 | 103 | 97 | 103 | 99.7 | 83.1 | 3.88 | 2.17 | 92.5 | 91.2 | 96.2 | 102 | 106 | 97.4 | 104 | 67.8 | 59 | 2.82 | 0.916 | 85.3 | 94.6 | 92.1 | 90.9 | 87.4 | 88.5 | 95.6 | 73.5 | 59.9 | 6.25 | 2.73 |
| CCOC(=O)N1CCN(/[N+]([O-])=N/Oc2cc(O/N=[N+](\[O-])N3CCN(C(=O)OCC)CC3)c([N+](=O)[O-])cc2[N+](=O)[O-])CC1 | 122 | 123 | 125 | 123 | 131 | 140 | 131 | 140 | 136 | 134 | 135 |  |  |  |  |  |  |  |  |  |  |  |  |  |  |  |  |  |  |  |  |  |  |
| NCCCC(N)(C(=O)O)C(F)F (centres undefined) | 116 | 116 | 113 | 117 | 118 | 110 | 113 | 112 | 108 | 101 | 98.4 | 123 | 125 | 123 | 121 | 114 | 122 | 113 | 113 | 115 | 107 | 109 | 114 | 122 | 113 | 118 | 113 | 109 | 110 | 105 | 105 | 105 | 100 |
| Cc1cc(Nc2ncc3c(n2)N(C)C(=O)N(c2cc(NC(=O)c4cccc(C(F)(F)F)c4)ccc2C)C3)n(C)n1 | 116 | 114 | 117 | 120 | 119 | 120 | 114 | 90.4 | 79.3 | 55.8 | 7.23 | 106 | 120 | 124 | 123 | 133 | 115 | 105 | 73.5 | 66.5 | 52.5 | 5.53 | 111 | 119 | 116 | 132 | 124 | 122 | 111 | 76.1 | 72.1 | 50.9 | 5.1 |
| N[S+](=O)([O-])c1ccc(Nc2nc(OCC3CCCCC3)c3[nH]cnc3n2)cc1 | 114 | 115 | 117 | 118 | 48 | 24.2 | 13.1 | 15.9 | 20.3 | 52.2 | 73 | 117 | 118 | 115 | 120 | 103 | 109 | 32.3 | 14.7 | 15.2 | 19.4 | 66.2 | 120 | 123 | 111 | 120 | 109 | 108 | 25.2 | 20.7 | 22.5 | 36.5 | 59.5 |
| CCn1nnc2c(N3CCOCC3)nc(-c3ccc(NC(=O)Nc4ccc(C(=O)N5CCN(C)CC5)cc4)cc3)nc21 | 103 | 109 | 99.8 | 92.6 | 91.6 | 76.3 | 101 | 71 | 76 | 70.2 | 68.9 | 97.5 | 98.4 | 99.4 | 83.6 | 72.3 | 55.3 | 94.3 | 55.2 | 54.9 | 56.9 | 59.4 | 93.7 | 106 | 88.5 | 70.6 | 69.9 | 59.6 | 103 | 56.9 | 58.8 | 54.4 | 50.1 |
| CCNC(=O)Nc1ccc(Oc2ncnc(N)c2/C=N/OC)cc1Cl | 107 | 114 | 107 | 116 | 123 | 119 | 119 | 118 | 106 | 101 | 120 | 111 | 113 | 117 | 117 | 121 | 128 | 126 | 121 | 117 | 111 | 131 | 106 | 116 | 119 | 122 | 124 | 123 | 118 | 122 | 119 | 107 | 107 |
